# US7732199B2, “Process for making transplantable cardiomyocytes from human embryonic stem cells” (Geron Corporation, priority 2001, dated 2010)
# Legend:
# [1] = system: Undifferentiated hES cells of the H7 line; test: Direct differentiation of plated hES cells to contracting cardiomyocytes; type: cell-based, human; conditions: 10 μM at day 10-12 or 12-14; no embryoid body stage
# Description: Cardiomyocyte differentiation was also achieved in a direct differentiation paradigm. Undifferentiated hES cells of the H7 line were dissociated and plated directly onto gelatin-coated plates without going through an embryoid body stage. The plated cells were cultured in differentiation medium (80% KO-DMEM, 1 mM L-glutamine, 0.1 mM β-mercaptoethanol, 1% amino acids, and 20% fetal bovine serum). Contracting cardiomyocytes were found at day 18 in cultures treated with 10 μM 5-aza-deoxy-cytidine at day 10-12 or 12-14, and at later times in all cultures.
# [2] = system: hES cells of the H1 or H9 line being cultured as embryoid bodies
# [3] = system: cardiomyogenic cell line developed from bone marrow stroma; conditions: treated for 24 hours; cited from earlier work
# [4] = system: hES-derived cardiomyocytes; test: Pharmacological response: contraction rate of beating areas of hES-derived cardiomyocytes; type: cell-based, human; conditions: for chronotropic effect: FIG. 5 Panels B to E
# Description: EBs were plated on to gelatin-coated 24-well plates and allowed to differentiate, as in Example 2. Contracting cardiomyocytes at differentiation day 15-21 were used for examining pharmacological response. The frequency of the spontaneous beating was measured by counting the contraction rate of the beating areas maintained in the differentiation medium in a 37° C. heating chamber of an inverted microscope. The cells were then incubated with test compounds in the incubator for 20-30 min, and observed for contraction rate. Dose-dependent effects were determined by cumulatively applying of increasing concentrations of each substrate. Data represent the mean pulsation rate±standard error of the mean measured on 10-20 beating areas.
# Differentiated cells were incubated with various concentrations of the drug and the number of beats per minute was counted. The cells were then washed with medium, maintained in differentiation medium for 24 h and observed for the time taken to recover contractility.
compound,measurement,setting,value
Nc1ncn([C@H]2C[C@H](O)[C@@H](CO)O2)c(=O)n1 [5-aza-deoxy-cytidine],day at which contracting cardiomyocytes were found,[1],18 days
same,proportion of beating areas in the culture,[2]; 1 to 10 μM at day 6-8,increased
same,expression of cardiac α-MHC (ratio of αMHC to 18S RNA),"[2]; 1 to 10 μM at day 6-8, harvested at day 15",significantly increased
Nc1ncn([C@@H]2O[C@H](CO)[C@@H](O)[C@H]2O)c(=O)n1 [5-azacytidine],"cells forming myotube-like structures, acquiring cardiomyocyte markers and beginning to beat",[3],30%
"C[S+](C)[O-] [DMSO, dimethyl sulfoxide]",toxicity to the cells,[2],toxic
same,beating areas compared with non-treated cultures,[2]; 0.5% from days 0-4,fewer
same,beating cells,[2]; 0.8% or 1%,absent
same,α-MHC expression compared with untreated cultures,[2]; DMSO treatment,significant reduction
"CC1=C(/C=C/C(C)=C/C=C/C(C)=C/C(=O)O)C(C)(C)CCC1 [RA, all-trans retinoic acid]",toxicity to the cells,[2],toxic
same,beating cells compared with untreated cultures,"[2]; doses between 10^−9 and 10^−5 M, at days 4-8, 8-15, or 4-15",no increase
CC(C)(C)NCC(O)c1cc(Cl)c(N)c(Cl)c1 (stereo not shown) [clenbuterol],beating rate after treatment,"[4]; 1-10 nM, cells taken at Day 72, from about 72 beats/min, p<0.005",about 98 beats/min
COc1ccc([C@@H]2Sc3ccccc3N(CCN(C)C)C(=O)[C@@H]2OC(C)=O)cc1 [diltiazem],beating areas that stopped contraction,[4]; 10^−5 M,100%
same,time until contraction recovered to normal levels after removal of the drug,[4]; cells washed and kept in differentiation medium,24 to 48 h
same,beating rate,"[4]; various concentrations, incubated 20-30 min, differentiation day 15-21, FIG. 5 Panel A",inhibited
CC(C)NCC(O)c1ccc(O)c(O)c1 (stereo not shown) [isoprenaline],chronotropic effect,[4],positive chronotropic effects
CNC[C@H](O)c1cccc(O)c1 [phenylephrine],chronotropic effect,[4],positive chronotropic effects
